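In this assay, cells in 96-well plates receive the compound at five concentrations for 48 hours. Endpoints are linearly interpolated between the surrounding concentrations. The concentration for 50% growth inhibition is given as GI50. TGI is the concentration that stops growth completely.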
Legend:
Experiment in all cases: NCI anticancer screen, dose series, 48 h
[1] = tested on: SR leukemia
[2] = tested on: HL-60(TB) leukemia
[3] = tested on: UACC-62 melanoma
[4] = tested on: SK-MEL-5 melanoma
[5] = tested on: SNB-19 CNS
[6] = tested on: MDA-MB-231 breast
[7] = tested on: M14 melanoma
[8] = tested on: OVCAR-3 ovarian
[9] = tested on: NCI-H226 lung
[10] = tested on: K-562 leukemia

Compound: c1csc(-c2csc(-c3cccs3)c2)c1
- TGI [1]: 66.8 µM
- TGI [2]: > 100 µM
- TGI [3]: > 100 µM
- TGI [4]: 38.8 µM
- TGI [5]: > 100 µM
- TGI [6]: > 100 µM
- TGI [7]: > 100 µM
- TGI [8]: > 100 µM

Compound: O.O=[Se](=O)(O)O.[NH-]C1CCCCC1[NH-].[Pt+2] (stereo not drawn)
- GI50 [2]: 3.22 µM
- TGI [2]: 33.8 µM
- GI50 [3]: 4.25 µM
- TGI [3]: 26.4 µM
- GI50 [4]: 7.4 µM
- TGI [4]: 15.6 µM
- GI50 [5]: > 50.7 µM
- TGI [5]: > 100 µM
- GI50 [9]: 5.21 µM
- TGI [9]: 25.7 µM
- GI50 [8]: 21.2 µM
- TGI [8]: > 81.9 µM
- GI50 [10]: 5.35 µM
- TGI [10]: > 100 µM

Compound: O=C(c1ccccc1)c1ccc2c(c1)N=C(c1ccc(Cl)c(Cl)c1)CC(c1ccc3ccccc3c1)N2 (stereo not drawn)
- TGI [1]: > 100 µM
- TGI [2]: > 100 µM
- TGI [3]: > 100 µM
- TGI [4]: > 100 µM
- TGI [5]: > 100 µM
- TGI [7]: > 100 µM
- TGI [9]: > 100 µM
- TGI [10]: > 100 µM

Compound: COc1cccc2c1C(=O)c1c(O)c3c(c(O)c1C2=O)C[C@](O)(C(=O)CO)CC3OC1CC(N)C(OC2CCCCO2)C(C)O1 (stereo partly drawn)
- TGI [2]: 0.294 µM
- TGI [3]: 1.11 µM
- TGI [4]: 1.34 µM
- TGI [5]: 4.16 µM
- TGI [9]: 0.434 µM
- TGI [8]: 4.56 µM
- TGI [10]: 6.5 µM

Compound: Cc1cn(C2CC(O)C(Cn3cc(Cn4nc(Br)c(=O)[nH]c4=O)nn3)O2)c(=O)[nH]c1=O (stereo not drawn)
- TGI [3]: > 100 µM
- TGI [4]: > 100 µM
- TGI [5]: > 100 µM
- TGI [6]: > 100 µM
- TGI [7]: > 100 µM
- TGI [9]: > 100 µM
- TGI [8]: > 100 µM

Compound: COc1cccc(C2c3cc4c(cc3OC(N3CCOCC3)C2C)OCO4)c1 (stereo not drawn)
- TGI [1]: > 100 µM
- TGI [4]: 15.6 µM
- TGI [5]: > 100 µM
- TGI [6]: > 100 µM
- TGI [7]: 71 µM
- TGI [9]: 43.4 µM
- TGI [8]: 38.6 µM
- TGI [10]: > 100 µM

Compound: Cc1cccc(-c2cc(=O)c3c(C)ccnc3[nH]2)c1
- TGI [2]: 0.703 µM
- TGI [3]: > 100 µM
- TGI [4]: 27.8 µM
- TGI [6]: > 100 µM
- TGI [7]: > 100 µM
- TGI [9]: > 100 µM
- TGI [10]: > 100 µM

Compound: COc1cc(/C=C2\N=C(c3ccccc3)N(c3ccc(C(=O)c4ccccc4)cc3N3C(=O)/C(=C/c4cc(OC)c(OC)c(OC)c4)N=C3c3ccccc3)C2=O)cc(OC)c1OC
- TGI [2]: 15.5 µM
- TGI [3]: 24.7 µM
- TGI [4]: 21.2 µM
- TGI [5]: > 100 µM
- TGI [6]: 54 µM
- TGI [7]: 33.4 µM
- TGI [8]: 16.6 µM
- TGI [10]: 68.7 µM

Compound: COC(=O)C1CC(C=O)=C(SC)N1 (stereo not drawn)
- TGI [3]: > 50 µM
- TGI [4]: > 50 µM
- TGI [5]: > 50 µM
- TGI [6]: > 50 µM
- TGI [7]: > 50 µM
- TGI [8]: > 50 µM
- TGI [10]: > 50 µM

Compound: CC[N+]1(C)CCC(O)(/C=C/c2ccc(Cl)c(Cl)c2)C(C(=O)/C=C/c2ccc(Cl)c(Cl)c2)C1 (stereo not drawn)
- TGI [1]: > 22.7 µM
- TGI [3]: 3.64 µM
- TGI [4]: 7.68 µM
- TGI [5]: 17.3 µM
- TGI [7]: > 23.3 µM
- TGI [9]: 14.6 µM
- TGI [8]: 10.6 µM
- TGI [10]: 4.07 µM

Compound: C=CC(=O)N1C/C(=C\c2ccc(F)cc2)C(=O)/C(=C/c2ccc(F)cc2)C1
- TGI [1]: > 100 µM
- TGI [2]: > 100 µM
- TGI [3]: 0.223 µM
- TGI [4]: 3.35 µM
- TGI [5]: 3.72 µM
- TGI [7]: 1.38 µM
- TGI [9]: 8.78 µM
- TGI [8]: 1.19 µM
- TGI [10]: > 100 µM

Compound: O=c1oc2ccccc2cc1-c1nc2ccccc2s1
- TGI [1]: > 100 µM
- TGI [2]: > 100 µM
- TGI [4]: > 75.1 µM
- TGI [6]: 27.6 µM
- TGI [7]: > 47.6 µM
- TGI [9]: 33 µM
- TGI [8]: 20.7 µM
